Assay type in all cases: in vivo
For test [1], the system named is maize Dk 261. The test can be described thus: Postemergence test, greenhouse. To be noted: halosulfuron 100 g/ha, after 20 days. From the text: (§1) A synergistic effect is always obtained when the herbicidal action of the combination of compound I and 2.1 to 2.33 is greater than the sum of the action of the individual herbicides.
(§2) The expected herbicidal action We for a given combination of two herbicides can be calculated as follows (q.v. COLBY, S. R., “Calculating synergistic and antagonistic response of herbicide combinations”, Weeds 15, pages 20-22, 1967):
(§3) If the value actually observed is higher than the expected value We, then there is synergism.
(§4) The test plants are grown under greenhouse conditions in plastic pots until reaching the 2-3 leaf stage. Standard soil is used, as the substrate for cultivation. At the 2-3 leaf stage, the herbicides are applied to the test plants on their own and in a mixture. Application is effected in the form of an aqueous suspension of the test substances in 500 1 water/ha. The rates of application depend on the optimum dosages determined under field conditions and greenhouse conditions. Evaluation of the tests is made after 20 days (% activity, 100%=plant perished, 0%=no phytotoxic effect).

The test system of test [2] is Digitaria. Nature of the test: Postemergence test, greenhouse. To be noted: halosulfuron 100 g/ha, after 20 days.
Excerpt: as §1, §2, §3, §4

Test [3] deals with Convolvulus. Nature of the test: Pre-emergence test, greenhouse. The settings on record: terbutylazin 200 g/ha, after 26 days.
Excerpt: as §1, §2, §3
(§5) The test plants are sown in plastic pots in standard soil under greenhouse conditions. Directly after sowing, the test substances are applied in an aqueous suspension (500 l water/ha). The test plants are then further cultivated in the greenhouse under optimum conditions. The rates of application depend on the optimum dosages determined under field conditions and greenhouse conditions. Evaluation of the tests is made after 26 days (% activity, 100% plant perished, 0%=no phytotoxic effect).

The test system of test [4] is Ipomoea. The test can be described thus: Pre-emergence test, greenhouse. The settings on record: terbutylazin 200 g/ha, after 26 days.
Excerpt: as §1, §2, §3, §5

The test system of test [5] is Xanthium. The test can be described thus: Pre-emergence test, greenhouse. To be noted: terbutylazin 200 g/ha, after 26 days.
Excerpt: as §1, §2, §3, §5

Test [6] relates to Polygonum. Nature of the test: Pre-emergence test, greenhouse. To be noted: terbutylazin 200 g/ha, after 26 days.
Excerpt: as §1, §2, §3, §5

The structures appear in SMILES notation.

For the compound `COc1cc(OC)nc(NC(=O)NS(=O)(=O)c2c(C(=O)O)c(Cl)nn2C)n1` [halosulfuron], the figures for the “% activity (herbicidal action)” value in test [1] and in test [2] were 5% and 25%, respectively.
For the compound `CCNc1nc(Cl)nc(NC(C)(C)C)n1` [terbutylazin], the “% activity (herbicidal action)” value in test [3] is recorded as 80%; in test [4], 30%; in test [5], 0%; in test [6] it was 60%.
